Where “and” joins values, the source holds several entries; their conditions need not be identical. Equal entries are not always repeated.
Key:
MCF-7 cells = test: Comet assay; format: cell-based, human; parameters: Tail Length: unit not given here; details: for Olive Moment / Tail Area / Tail DNA % / Tail Intensity / Tail Length / Tail Moment: 3 days
MCF-7 [1] = test: Proliferation by impedance biosensor (RTCA DP Analyzer); format: cell-based, human; details: test concentration selected from biosensor data
Method: The effect of the test compounds on the proliferation of multiple cell lines was assessed in real time using the RTCA DP Analyzer (Roche, Basel, Switzerland). For this purpose, we used specialized E-plates containing wells similar in size to a standard 96-well plate, but their bottoms were covered with microelectrodes to assess impedance. When cells adhere to the microelectrodes, the impedance of the well changes, which allows us to calculate the cell index proportional to the cell number. In the experiment, cells were seeded in the E-plate at densities of 20,000 cells per milliliter (180 μL/well). At 24 h post-cell attachment, 20 μL of compounds at various test concentrations or solvent as a control were introduced, and cells were then cultured with real-time impedance registration for 5 days.

MCF-7 [2] = test: as above; format: cell-based; details: Homo sapiens, MCF7, 72 h, incubation three days, read-out: IC50 inhibitory concentration, MCF-7
HSF = test: Colony formation assay; format: cell-based; details: Homo sapiens, 72 h, incubation three days, read-out: Inhibitory concentration IC50, HSF
Method: (§1) Cells were cultured in a 24-well plate with 1 mL of DMEM nutrient medium for 24 h. […] The experiment was conducted in triplicate and in two or three independent repetitions. Only solvent was added to the control wells instead of the test compounds. Incubation with the drugs continued for three days, after which the grown colonies were washed with cold PBS solution and fixed in a fixing buffer (10% acetic acid, 10% methanol in distilled water) for 15 min. The colonies were stained with a 0.4% solution of crystal violet in 20% ethanol for 30 min and then washed 3 times with dH2O and analyzed under a microscope. The colonies were then dissolved in 10% acetic acid for 40 min on a shaker, and the absorbance of the lysate was read at 590 nm. Results were expressed as a percentage relative to the control, and a dose–response curve was plotted to determine the IC50 value.

HCT-15 = test: Colony formation assay; format: cell-based; details: Homo sapiens, HCT-15, 72 h, incubation three days, read-out: Inhibitory concentration IC50, HCT-15
Method: as §1

NCI-H322M = test: Colony formation assay; format: cell-based; details: Homo sapiens, 72 h, incubation three days, read-out: Inhibitory concentration IC50, NCI-H322M
Method: as §1

MDA-MB-231 = test: Colony formation assay; format: cell-based; details: Homo sapiens, MDA-MB-231, 72 h, incubation three days, read-out: Inhibitory concentration IC50, MDA-MB-231
Method: as §1

SNB-19 = test: Colony formation assay; format: cell-based; details: Homo sapiens, SNB-19, 72 h, incubation three days, read-out: Inhibitory concentration IC50, SNB-19
Method: as §1

COc1cccc2c1C(=O)c1c(O)c3c(c(O)c1C2=O)CC(O)(C(=O)CO)CC3OC1CC(NC(=O)/C=C/c2cnc(C)c3c2COC(C)(C)O3)C(O)C(C)O1 (stereo not shown) [DOX-2, (E)-N-(3-hydroxy-2-methyl-6-((3,5,12-trihydroxy-3-(2-hydroxyacetyl)-10-methoxy-6,11-dioxo-1,2,3,4,6,11-hexahydrotetracen-1-yl)oxy)tetrahydro-2H-pyran-4-yl)-3-(2,2,8-trimethyl-4H-[1,3]dioxino[4,5-c]pyridin-5-yl)acrylamide]
Olive Moment (MCF-7 cells; MCF-7, 5 µM (IC30)): 0.73 | Tail Area (MCF-7 cells; MCF-7, 5 µM (IC30)): 1254 | Tail DNA % (MCF-7 cells; MCF-7, 5 µM (IC30)): 1.3% | Tail Intensity (MCF-7 cells; MCF-7, 5 µM (IC30)): 10 | Tail Length (MCF-7 cells; MCF-7, 5 µM (IC30)): 4.9 | Tail Moment (MCF-7 cells; MCF-7, 5 µM (IC30)): 0.14 | Olive Moment (MCF-7 cells; MCF-7, 10 µM (IC60)): 1.42 | Tail Area (MCF-7 cells; MCF-7, 10 µM (IC60)): 637 | Tail DNA % (MCF-7 cells; MCF-7, 10 µM (IC60)): 5.1% | Tail Intensity (MCF-7 cells; MCF-7, 10 µM (IC60)): 21 | Tail Length (MCF-7 cells; MCF-7, 10 µM (IC60)): 1.5 | Tail Moment (MCF-7 cells; MCF-7, 10 µM (IC60)): 0.21 | Olive Moment (MCF-7 cells; MCF-7, 20 µM (IC70)): 1.01 | Tail Area (MCF-7 cells; MCF-7, 20 µM (IC70)): 876 | Tail DNA % (MCF-7 cells; MCF-7, 20 µM (IC70)): 1.9% | Tail Intensity (MCF-7 cells; MCF-7, 20 µM (IC70)): 20 | Tail Length (MCF-7 cells; MCF-7, 20 µM (IC70)): 5.8 | Tail Moment (MCF-7 cells; MCF-7, 20 µM (IC70)): 0.25 | DNA breaks in the Comet assay (in words) (MCF-7 cells; MCF-7, 72 h): do not cause DNA breaks | IC20 (MCF-7 [1]; Homo sapiens, MCF7): 1.5 µM | IC0, MCF-7 (MCF-7 [1]): 0.4 µM | IC4, MCF-7 (MCF-7 [1]): 0.7 µM | IC30, MCF-7 (MCF-7 [1]): 5 μM and 5 µM (IC30) μM | IC60, MCF-7 (MCF-7 [1]): 10 μM and 10 µM (IC60) μM | IC70, MCF-7 (MCF-7 [1]): 20 μM and 20 µM (IC70) μM | IC50 (MCF-7 [2]): 8.21 ± 2.93 µM | IC50 (HSF): > 100 µM | IC50 (HCT-15): 110 ± 21.9 µM | IC50 (NCI-H322M): > 100 µM | IC50 (MDA-MB-231): 0.34 ± 0.06 µM | IC50 (SNB-19): 1.05 ± 0.34 µM
